Results: ChEMBL document CHEMBL3885881, “DrugMatrix”

Species on record: Rattus norvegicus
Format: toxicity, organism-based, Sprague-Dawley
Conditions: in vivo, po, route oral GAVAGE, […]; for ABSOLUTE EOSINOPHIL / ABSOLUTE LYMPHOCYTE / ABSOLUTE MONOCYTE / ABSOLUTE SEGMENTED NEUTROPHIL / BASOPHIL / EOSINOPHIL / ERYTHROCYTE COUNT / HEMATOCRIT / HEMOGLOBIN / LEUKOCYTE COUNT / LYMPHOCYTE / MEAN CORPUSCULAR HEMOGLOBIN / MEAN CORPUSCULAR HEMOGLOBIN CONCENTRATION / MEAN CORPUSCULAR VOLUME / MONOCYTE / NEUTROPHIL / NUCLEATED RED BLOOD CELLS / PLATELET COUNT: tissue Blood; for ALANINE AMINOTRANSFERASE / ALBUMIN / ALKALINE PHOSPHATASE / ASPARTATE AMINOTRANSFERASE / BLOOD UREA NITROGEN / CARBON DIOXIDE / CHLORIDE / CHOLESTEROL / CREATINE PHOSPHOKINASE / CREATININE / GLUCOSE / LACTATE DEHYDROGENASE / LIPASE / PHOSPHORUS / POTASSIUM / SODIUM / TOTAL BILIRUBIN / TOTAL PROTEIN / URIC ACID: tissue Plasma
[1] = 0 mg/kg, 6 h, vehicle control, dose level Control, time 0.25 day
[2] = 0 mg/kg, 24 h, vehicle control, dose level Control, time 1 day
[3] = 30 mg/kg, 6 h, dose level Low, time 0.25 day

Description: DrugMatrix - Regimen: Single

## S=C=Nc1cccc2ccccc12 [1-NAPHTHYLISOTHIOCYANATE]
[1]
  ABSOLUTE EOSINOPHIL: 61.17 CELLS/uL
  ABSOLUTE LYMPHOCYTE: 12625.83 CELLS/uL
  ABSOLUTE MONOCYTE: 417.17 CELLS/uL
  ABSOLUTE SEGMENTED NEUTROPHIL: 1595.83 CELLS/uL
  BASOPHIL: 0%
  EOSINOPHIL: 0.33%
  ERYTHROCYTE COUNT: 5.46 x10E6/uL
  HEMATOCRIT: 36.02%
  HEMOGLOBIN: 13.55 G/DL
  LEUKOCYTE COUNT: 14.7 x10E3/uL
  LYMPHOCYTE: 85.83%
  MEAN CORPUSCULAR HEMOGLOBIN: 24.87 pg
  MEAN CORPUSCULAR HEMOGLOBIN CONCENTRATION: 37.65 G/DL
  MEAN CORPUSCULAR VOLUME: 66.03 fL
  MONOCYTE: 2.67%
  NEUTROPHIL: 11.17%
  NUCLEATED RED BLOOD CELLS: 0 /100WBC
  PLATELET COUNT: 1072.33 x10E3/uL
  ALANINE AMINOTRANSFERASE: 63.33 u/L
  ALBUMIN: 4.58 G/DL
  ALKALINE PHOSPHATASE: 285 u/L
  ASPARTATE AMINOTRANSFERASE: 116.5 u/L
  BLOOD UREA NITROGEN: 9.17 mg/dL
  CARBON DIOXIDE: 18.83 mmol/L
  CHLORIDE: 104.5 MEQ/L
  CHOLESTEROL: 68.67 mg/dL
  CREATINE PHOSPHOKINASE: 421 u/L
  CREATININE: 0.58 mg/dL
  GLUCOSE: 160.67 mg/dL
  LACTATE DEHYDROGENASE: 396 u/L
  LIPASE: 10.33 u/L
  PHOSPHORUS: 12.25 mg/dL
  POTASSIUM: 6.42 MEQ/L
  SODIUM: 142.77 MEQ/L
  TOTAL BILIRUBIN: 0.25 mg/dL
  TOTAL PROTEIN: 5.48 G/DL
  URIC ACID: 1.65 mg/dL
[2]
  ABSOLUTE EOSINOPHIL: 23.83 CELLS/uL
  ABSOLUTE LYMPHOCYTE: 11026.5 CELLS/uL
  ABSOLUTE MONOCYTE: 98.5 CELLS/uL
  ABSOLUTE SEGMENTED NEUTROPHIL: 667.83 CELLS/uL
  BASOPHIL: 0%
  EOSINOPHIL: 0.17%
  ERYTHROCYTE COUNT: 4.92 x10E6/uL
  HEMATOCRIT: 31.9%
  HEMOGLOBIN: 12.6 G/DL
  LEUKOCYTE COUNT: 11.82 x10E3/uL
  LYMPHOCYTE: 93%
  MEAN CORPUSCULAR HEMOGLOBIN: 25.7 pg
  MEAN CORPUSCULAR HEMOGLOBIN CONCENTRATION: 39.57 G/DL
  MEAN CORPUSCULAR VOLUME: 64.97 fL
  MONOCYTE: 0.83%
  NEUTROPHIL: 6%
  NUCLEATED RED BLOOD CELLS: 0 /100WBC
  PLATELET COUNT: 872.33 x10E3/uL
  ALANINE AMINOTRANSFERASE: 82.67 u/L
  ALBUMIN: 4.17 G/DL
  ALKALINE PHOSPHATASE: 321.83 u/L
  ASPARTATE AMINOTRANSFERASE: 99.5 u/L
  BLOOD UREA NITROGEN: 13.33 mg/dL
  CARBON DIOXIDE: 33.67 mmol/L
  CHLORIDE: 99.83 MEQ/L
  CHOLESTEROL: 64 mg/dL
  CREATINE PHOSPHOKINASE: 275.33 u/L
  CREATININE: 0.21 mg/dL
  GLUCOSE: 146.17 mg/dL
  LACTATE DEHYDROGENASE: 101 u/L
  LIPASE: 9.83 u/L
  PHOSPHORUS: 8.82 mg/dL
  POTASSIUM: 5.51 MEQ/L
  SODIUM: 143.2 MEQ/L
  TOTAL BILIRUBIN: 0.18 mg/dL
  TOTAL PROTEIN: 5.83 G/DL
  URIC ACID: 0.63 mg/dL
[3]
  ABSOLUTE EOSINOPHIL: 14.83 CELLS/uL
  ABSOLUTE LYMPHOCYTE: 9035 CELLS/uL
  ABSOLUTE MONOCYTE: 384.17 CELLS/uL
  ABSOLUTE SEGMENTED NEUTROPHIL: 1199.33 CELLS/uL
  BASOPHIL: 0%
  EOSINOPHIL: 0.17%
  ERYTHROCYTE COUNT: 5.6 x10E6/uL
  HEMATOCRIT: 38.25%
  HEMOGLOBIN: 13.8 G/DL
  LEUKOCYTE COUNT: 10.63 x10E3/uL
  LYMPHOCYTE: 85.5%
  MEAN CORPUSCULAR HEMOGLOBIN: 24.68 pg
  MEAN CORPUSCULAR HEMOGLOBIN CONCENTRATION: 36.08 G/DL
  MEAN CORPUSCULAR VOLUME: 68.37 fL
  MONOCYTE: 3.67%
  NEUTROPHIL: 10.67%
  NUCLEATED RED BLOOD CELLS: 0 /100WBC
  PLATELET COUNT: 1129.33 x10E3/uL
  ALANINE AMINOTRANSFERASE: 63.33 u/L
  ALBUMIN: 4.7 G/DL
  ALKALINE PHOSPHATASE: 419.67 u/L
  ASPARTATE AMINOTRANSFERASE: 128.33 u/L
  BLOOD UREA NITROGEN: 10.5 mg/dL
  CARBON DIOXIDE: 14.83 mmol/L
  CHLORIDE: 104.17 MEQ/L
  CHOLESTEROL: 78.67 mg/dL
  CREATINE PHOSPHOKINASE: 651.17 u/L
  CREATININE: 0.27 mg/dL
  GLUCOSE: 216.83 mg/dL
  LACTATE DEHYDROGENASE: 402.17 u/L
  LIPASE: 11.67 u/L
  PHOSPHORUS: 17.25 mg/dL
  POTASSIUM: 7.07 MEQ/L
  SODIUM: 146.68 MEQ/L
  TOTAL BILIRUBIN: 0.23 mg/dL
  TOTAL PROTEIN: 6.17 G/DL
  URIC ACID: 3.28 mg/dL
